Columns and labels:
Assay type in all cases: in vivo
[1] = test system: green foxtail (Setaria viridis, SETVI); assay: Pre-emerge test, greenhouse herbicide activity screening; conditions: pre-emerge, 14 days after application, rating scale 0-100
In short: (§1)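 Compounds in acetone were track-sprayed at 15-1000 g ai/ha (187 l/ha) on sandy loam pots: pre-emerge one day after seeding, post-emerge at 2-3 leaf stage with 0.25% v/v non-ionic surfactant. Phytotoxicity was rated 14 days later on a 0 (no damage) to 100 (complete death) scale.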

[2] = test system: velvetleaf (Abutilon theophrasti, ABUTH); assay: as above; conditions: pre-emerge, 14 days after application, rating scale 0-100
In short: as §1

[3] = test system: johnsongrass (Sorghum halepense, SORHA); assay: as above; conditions: pre-emerge, 14 days after application, rating scale 0-100
In short: as §1

[4] = test system: lambsquarters (Chenopodium album, CHEAL); assay: as above; conditions: pre-emerge, 14 days after application, rating scale 0-100
In short: as §1

[5] = test system: barnyardgrass (Echinochloa crus-galli, ECHCG); assay: as above; conditions: pre-emerge, 14 days after application, rating scale 0-100
In short: as §1

[6] = test system: common ragweed (Ambrosia artemisizfolia L., AMBEL); assay: as above; conditions: pre-emerge, 14 days after application, rating scale 0-100
In short: as §1

[7] = test system: sicklepod (Cassia obtusifolia, CASOB); assay: as above; conditions: pre-emerge, 14 days after application, rating scale 0-100
In short: as §1

[8] = test system: ivyleaf morningglory (Ipomoea hederacea, IPOHE); assay: as above; conditions: pre-emerge, 14 days after application, rating scale 0-100
In short: as §1

[9] = test system: large crabgrass (Digitaria sanguinalis, DIGSA); assay: as above; conditions: pre-emerge, 14 days after application, rating scale 0-100
In short: as §1

[10] = test system: upland rice (Oryza sp., var. Tebonnet, RICE); assay: Pre-emerge test, crop safety; conditions: pre-emerge, 14 days after application, rating scale 0-100
In short: (§2)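 Visual ratings on a 0-100 scale (0 no damage, 100 all plants dead) were taken at 14 days after treatment. Rates of 15-1000 g ai/ha in acetone, 187 l/ha, were sprayed onto soil one day after planting (pre-emerge) or onto 2-3 leaf plants with 0.25% v/v surfactant (post-emerge).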

[11] = test system: field corn (Zea mays L., var. Dekalb 535, CORN); assay: Pre-emerge test, crop safety; conditions: pre-emerge, 14 days after application, rating scale 0-100
In short: as §2

[12] = test system: green foxtail (Setaria viridis, SETVI); assay: Post-emerge test, greenhouse herbicide activity screening; conditions: post-emerge, 14 days after application, rating scale 0-100
In short: (§3)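 Herbicidal damage is scored 0 (none) to 100 (complete plant death) two weeks after a simulated field spray. Rates span 15–1000 g ai/ha, delivered in acetone at 187 l/ha. For post-emergence treatments, plants have 2–3 leaves and the spray carries 0.25% v/v non-ionic surfactant.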

[13] = test system: velvetleaf (Abutilon theophrasti, ABUTH); assay: as above; conditions: post-emerge, 14 days after application, rating scale 0-100
In short: as §3

[14] = test system: johnsongrass (Sorghum halepense, SORHA); assay: as above; conditions: post-emerge, 14 days after application, rating scale 0-100
In short: as §3

[15] = test system: redroot pigweed (Amaranthus retroflexus, AMARE); assay: as above; conditions: post-emerge, 14 days after application
In short: as §3

[16] = test system: lambsquarters (Chenopodium album, CHEAL); assay: as above; conditions: post-emerge, 14 days after application, rating scale 0-100
In short: as §3

[17] = test system: barnyardgrass (Echinochloa crus-galli, ECHCG); assay: as above; conditions: post-emerge, 14 days after application, rating scale 0-100
In short: as §3

[18] = test system: sicklepod (Cassia obtusifolia, CASOB); assay: as above; conditions: post-emerge, 14 days after application, rating scale 0-100
In short: as §3

[19] = test system: ivyleaf morningglory (Ipomoea hederacea, IPOHE); assay: as above; conditions: post-emerge, 14 days after application, rating scale 0-100
In short: as §3

[20] = test system: large crabgrass (Digitaria sanguinalis, DIGSA); assay: as above; conditions: post-emerge, 14 days after application, rating scale 0-100
In short: as §3

[21] = test system: redroot pigweed (Amaranthus retroflexus, AMARE); assay: Pre-emerge test, greenhouse herbicide activity screening; conditions: pre-emerge, 14 days after application, rating scale 0-100
In short: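 Rating: 0–100 visual injury, 14 DAA. Application: acetone, 187 l/ha, 15–1000 g ai/ha, flat-fan track sprayer with nozzle 40–45 cm above soil or canopy. Post-emerge runs used 0.25% v/v surfactant on 2–3 leaf plants.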

[22] = test system: upland rice (Oryza sp., var. Tebonnet, RICE); assay: Post-emerge test, crop safety; conditions: post-emerge, 14 days after application, rating scale 0-100
In short: as §1

[23] = test system: field corn (Zea mays L., var. Dekalb 535, CORN); assay: Post-emerge test, crop safety; conditions: post-emerge, 14 days after application, rating scale 0-100
In short: as §1

With `CCCOC(=O)C(Cl)Cc1c(OCC)c(Cl)cc(F)c1-n1c(=O)cc(C(F)(F)F)n(C)c1=O` (stereo not shown) [14-66] the “phytotoxicity rating SETVI” value ([1]; 63 g ai/ha) was 20, the “phytotoxicity rating SETVI” value ([1]; 250 g ai/ha) was 100 and the “phytotoxicity rating ABUTH” value ([2]; 63 g ai/ha) was 90. The “phytotoxicity rating ABUTH” value ([2]; 250 g ai/ha) was 100, the “phytotoxicity rating SORHA” value ([3]; 63 g ai/ha) was 0 and the “phytotoxicity rating SORHA” value ([3]; 250 g ai/ha) was 30. For the same molecule, the “phytotoxicity rating CHEAL” value ([4]; 63 g ai/ha) was 90, the “phytotoxicity rating CHEAL” value ([4]; 250 g ai/ha) was 100 and the “phytotoxicity rating ECHCG” value ([5]; 63 g ai/ha) was 50. The “phytotoxicity rating ECHCG” value ([5]; 250 g ai/ha) was 100, the “phytotoxicity rating AMBEL” value ([6]; 63 g ai/ha) was 0 and the “phytotoxicity rating AMBEL” value ([6]; 250 g ai/ha) was 0. For the same molecule, the “phytotoxicity rating CASOB” value ([7]; 63 g ai/ha) was 0, the “phytotoxicity rating CASOB” value ([7]; 250 g ai/ha) was 0 and the “phytotoxicity rating IPOHE” value ([8]; 63 g ai/ha) was 0. The “phytotoxicity rating IPOHE” value ([8]; 250 g ai/ha) was 60, the “phytotoxicity rating DIGSA” value ([9]; 63 g ai/ha) was 90 and the “phytotoxicity rating DIGSA” value ([9]; 250 g ai/ha) was 100. For the same molecule, the “phytotoxicity rating RICE” value ([10]; 63 g ai/ha) was 0, the “phytotoxicity rating RICE” value ([10]; 250 g ai/ha) was 20 and the “phytotoxicity rating CORN” value ([11]; 63 g ai/ha) was 0. For the same molecule, the “phytotoxicity rating CORN” value ([11]; 250 g ai/ha) was 0, the “Post-emerge Herbicidal Activity SETVI (phytotoxicity rating)” value ([12]; 63 g ai/ha) was 95 and the “Post-emerge Herbicidal Activity SETVI (phytotoxicity rating)” value ([12]; 250 g ai/ha) was 100. For the same molecule, the “Post-emerge Herbicidal Activity ABUTH (phytotoxicity rating)” value ([13]; 63 g ai/ha) was 100, the “Post-emerge Herbicidal Activity ABUTH (phytotoxicity rating)” value ([13]; 250 g ai/ha) was 100 and the “Post-emerge Herbicidal Activity SORHA (phytotoxicity rating)” value ([14]; 63 g ai/ha) was 60. For the same molecule, the “Post-emerge Herbicidal Activity SORHA (phytotoxicity rating)” value ([14]; 250 g ai/ha) was 80, the “Post-emerge Herbicidal Activity AMARE (phytotoxicity rating)” value ([15]; 63 g ai/ha, rating scale 0-100 (0 no damage, 100 complete death)) was 95 and the “Post-emerge Herbicidal Activity AMARE (phytotoxicity rating)” value ([15]; 250 g ai/ha, rating scale 0-100) was 100. For the same molecule, the “Post-emerge Herbicidal Activity CHEAL (phytotoxicity rating)” value ([16]; 63 g ai/ha) was 80, the “Post-emerge Herbicidal Activity CHEAL (phytotoxicity rating)” value ([16]; 250 g ai/ha) was 99 and the “Post-emerge Herbicidal Activity ECHCG (phytotoxicity rating)” value ([17]; 63 g ai/ha) was 100. For the same molecule, the “Post-emerge Herbicidal Activity ECHCG (phytotoxicity rating)” value ([17]; 250 g ai/ha) was 100, the “Post-emerge Herbicidal Activity CASOB (phytotoxicity rating)” value ([18]; 63 g ai/ha) was 80 and the “Post-emerge Herbicidal Activity CASOB (phytotoxicity rating)” value ([18]; 250 g ai/ha) was 90. The “Post-emerge Herbicidal Activity IPOHE (phytotoxicity rating)” value ([19]; 63 g ai/ha) was 70, the “Post-emerge Herbicidal Activity IPOHE (phytotoxicity rating)” value ([19]; 250 g ai/ha) was 90 and the “Post-emerge Herbicidal Activity DIGSA (phytotoxicity rating)” value ([20]; 63 g ai/ha) was 100. For the same molecule, the “Post-emerge Herbicidal Activity DIGSA (phytotoxicity rating)” value ([20]; 250 g ai/ha) was 100, the “phytotoxicity rating AMARE” value ([21]; 63 g ai/ha) was 100 and the “phytotoxicity rating AMARE” value ([21]; 250 g ai/ha) was 100. The “Post-emerge Herbicidal Activity RICE (crop damage rating)” value ([22]; 63 g ai/ha) was 0, the “Post-emerge Herbicidal Activity RICE (crop damage rating)” value ([22]; 250 g ai/ha) was 10 and the “Post-emerge Herbicidal Activity CORN (crop damage rating)” value ([23]; 63 g ai/ha) was 90. The “Post-emerge Herbicidal Activity CORN (crop damage rating)” value ([23]; 250 g ai/ha) was 100.

Source: patent US6355799B1, “Substituted benzene compounds, process for their preparation, and herbicidal and defoliant compositions containing them” (ISK Americas Incorporated, priority 1997, dated 2002)
